Where a name gives a salt, the structure may show the parent alone.
Columns and labels:
[1] = tested on: p53 in A2780 cells; test: p53 ELISA (preservation of p53 in A2780 cells); format: cell-based, human; conditions: Homo sapiens, lowest dose giving at least 140% of the p53 value in the control, 16 hours treatment, read-out: p53-elisa LAD
Experimental: The capacity of the compounds to preserve p53 in A2780 cells was measured with the p53 enzyme linked immunosorbent assay (ELISA). The p53 assay is a “sandwich” enzyme immunoassay employing two polyclonal antibodies. A polyclonal antibody, specific for the p53 protein, has been immobilized onto the surface of the plastic wells. Any p53 present in the sample to be assayed will bind to the capture antibody. The biotinylated detector polyclonal antibody also recognizes p53 protein, and will bind to any p53, which has been retained by the capture antibody. The detector antibody, in turn, is bound by horseradish peroxidase-conjugated streptavidin. The horseradish peroxidase catalyses the conversion of the chromogenic substrate o-phenylene diamine, the intensity of which is proportional to the amount of p53 protein bound to the plate. The coloured reaction product is quantified using a spectrophotometer. Quantitation is achieved by the construction of a standard curve using known concentrations of purified recombinant HIS tagged p53 protein (see example C.1).
A2780 cells (ATCC) were cultivated in RPMI 1640 supplemented with 10% fetal calf serum (FCS), 2 mM L-glutamine and gentamycin at 37° C. in a humidified incubator with 5% CO2.
A2780 cells were seeded at 20.000 cells per well in a 96 well plate, cultured for 24 hours and treated with compound for 16 hours at 37° C. in a humidified incubator. After incubation, the cells were washed once with phosphate-buffered saline and 30 μl, per well, low salt RIPA buffer (20 mM tris, pH7.0, 0.5 mM EDTA, 1% Nonidet P40, 0.5% DOC, 0.05% SDS, 1 mM PMSF, 1 μg/ml aprotinin and 0.5 μ/ml leupeptin) was added. Plates were placed on ice for 30 minutes to complete the lysis. p53 protein was detected in de lysates by using the sandwich ELISA, described below.
High binding polystyrene EIA/RIA 96 well plates (Costar 9018) were coated with the capture antibody pAb1801 (Abcam ab28-100) at a concentration of 1 μg/ml in coating buffer (0.1 M NaHCO3 pH8.2), 50 μl per well. The antibody was allowed to adhere overnight at 4° C. Coated plates were washed once with phosphate-buffered saline (PBS)/0.05% Tween 20 and 300 μl of blocking buffer (PBS, 1% bovine serum albumins (BSA)) was added, for an incubation period of 2 hours at room temperature. Dilutions of purified recombinant HIS tagged p53 protein, ranging from 3-200 ng/ml, were made in blocking buffer and used as standards.
Plates were washed twice with PBS/0.05% Tween 20 and blocking buffer or standards were added at 80 μl/well. To the standards, 20 μl of lysis buffer was added. The samples were added to the other wells at 20 μl lysate/well. After an overnight incubation at 4° C., plates were washed twice with PBS/0.05% Tween 20. Aliquots of 100 μl secondary polyclonal antibody p53(FL-393) (Tebubio, sc-6243) at a concentration of 1 μg/ml in blocking buffer were added to each well and allowed to adhere for 2 hours at room temperature. Plates were washed three times with PBS/0.05% Tween 20. Detection antibody anti-rabbit HRP (sc-2004, Tebubio) at 0.04 μg/ml in PBS/1% BSA was added and incubated for 1 hour at room temperature. Plates were washed three times with PBS/0.05% Tween 20 and 100 μl of substrate buffer was added (substrate buffer was prepared shortly before use by adding 1 tablet of 10 mg o-phenylene diamine (OPD) from Sigma and 125 μl 3% H2O2 to 25 ml OPD buffer: 35 mM citric acid, 66 mM Na2HPO4, pH5.6). After 5 to 10 minutes, colour reaction was stopped by adding 50 μl stop buffer (1 M H2SO4) per well. The absorbance at dual wavelengths of 490/655 nm was measured using a Biorad micro plate reader and the results were then analyzed.
For each experiment, controls (containing no drug) and a blank incubation (containing no cells or drugs) were run in parallel. The blank value was subtracted from all control and sample values. For each sample, the value of p53 (in absorbance units) was expressed as the percentage of the value for p53 present in the control. […]

[2] = tested on: A2780 ovarian cancer cells; test: Alamar Blue cell proliferation assay, A2780; format: cell-based, human; conditions: Homo sapiens, 96 h, 4-day incubation, read-out: A2780 cell proliferation inhibition pIC50 (converted)
Experimental: Cellular activity of the compounds of formula (I) was determined on A2780 tumour cells using a colorimetric assay for cell toxicity or survival (see example C.2).
The human A2780 ovarian cancer cells were a kind gift from Dr. T. C. Hamilton (Fox Chase Cancer Centre, Pennsylvania, U.S.A.). The cells were cultured in RPMI 1640 medium supplemented with 2 mM L-Glutamine, 50 μg/ml gentamicin and 10% fetal calf serum.
(§1) Resazurin was purchased from Aldrich (Prod. No. 199303). Potassium ferrocyanide, potassium ferricyanide, KH2PO4 and K2HPO4 were purchased from Sigma (Prod. Nos. P9387, P8131, P5655 and P8281, respectively).
(§2) Potassium Phosphate Buffer 0.1 M (PPB) was made as follows: 2.72 gram KH2PO4 and 13.86 gram K2HPO4 were dissolved in 500 ml milli-Q H2O, the pH was adjusted to pH 7.4 and the volume was brought to 1 litre with milli-Q H2O; the buffer was filter sterilised and stored at room temperature. Resazurin stock solution (PPB-A) was prepared fresh by dissolving 45 mg resazurin in 15 ml PBS. 30 mM potassium ferricyanide (PPB-B) was prepared by dissolving 0.987 gram potassium ferricyanide in 100 ml PPB. 30 mM potassium ferrocyanide (PPB-C) was prepared by dissolving 1.266 gram potassium ferrocyanide in 100 ml PPB.
(§3) Mixture of PPB-A, PPB-B and PPB-C was prepared by mixing equal volumes of the respective solutions. Resazurin work solution (herein termed “Alamar Blue” solution) was prepared by diluting said mixture 20×(vol/vol) in PPB and filter sterilising; the Alamar Blue solution could be kept at 4° C. for a maximum of 2 weeks.
(§4) For experiments in 384 wells plates the cells were seeded at a density of 5×10^3 cells/ml in Falcon 384-well culture plates (Life Technologies, Merelbeke, Belgium), black with clear bottom, in 45 μl culture medium. Cells were allowed to adhere to plastic for 24 hr. The tested compound was pre-diluted (1/50 in culture medium) and 5 μl pre-diluted compound was added to the wells. Following 4-day incubation, 10 μl of the Alamar Blue solution was added to each well and the cells were further incubated for 5 hrs (A2780) or 6 hrs (U87MG) at 37° C. The fluorescence intensity was measured for each well with a Fluorescence plate reader (Fluorskan, Labsystems, 540 nm excitation and 590 nm emission)
(§5) The antiproliferative activity was calculated as percentage of remaining viable cells in treated versus control (untreated cells) conditions. Within an experiment, the result for each experimental condition is the mean of 3 replicate wells. When appropriate, the experiments were repeated to establish full concentration-response curves. When appropriate, IC50-values (concentration of the drug, needed to reduce cell growth to 50% of the control) were computed using probit analysis for graded data (Finney, D. J., Probit Analyses, 2nd Ed. Chapter 10, Graded Responses, Cambridge University Press, Cambridge 1962). Herein the effects of test compounds are expressed as pIC50 (the negative log value of the IC50-value) (see Table 4).

[3] = tested on: U87MG glioma cells; test: Alamar Blue cell proliferation assay, U87MG; format: cell-based, human; conditions: Homo sapiens, U-87 MG, 96 h, 4-day incubation, read-out: U87MG cell proliferation inhibition pIC50 (converted)
Experimental: The human U87MG glioma cells were cultured in DMEM medium supplemented with 2 mM L-Glutamine, 1 mM Sodium Pyruvate, 1.5 g/L Sodium Bicarbonate, 50 μg/ml gentamicin and 10% heat inactivated fetal calf serum. (U87MG cells are human glioblastoma cells with wild type p53. In this cell line MDM2 tightly controls p53 expression).
as §1, §2, §3, §4, §5

SMILES | melting point | minimal effective concentration [1] | IC50 [2] | IC50 [3]
OCc1cc(Nc2cc(F)c(NCCc3c[nH]c4ccccc34)c(F)c2)ccn1 (as salt: hydrochloric acid salt) [Compound 14] | 110 °C | – | – | –
Cc1c(NCCc2c[nH]c3ccccc23)ccc(Nc2ccncc2)c1C [Compound 1] | 186 °C | > 10 µM | > 10 µM | > 10 µM
Cc1c(NCCc2c[nH]c3ccccc23)ccc(Nc2ccnc(CO)c2)c1C [Compound 2] | 163 °C | 3 µM | > 10 µM | 7.76 µM
FC(F)(F)c1cc(Nc2ccncc2)cc(C(F)(F)F)c1NCCc1c[nH]c2ccccc12 [Compound 3] | 187 °C | > 10 µM | > 10 µM | > 10 µM
OC1CCc2c(Nc3cc(C(F)(F)F)c(NCCc4c[nH]c5ccccc45)c(C(F)(F)F)c3)ccnc21 (centres unmarked) [Compound 5] | 178 °C | 0.3 µM | > 10 µM | > 10 µM
c1ccc2c(CCNc3ccc(Nc4ccncc4)c4ccccc34)c[nH]c2c1 [Compound 6] | 166 °C | 1 µM | > 10 µM | 1.58 µM
Cc1cc(Nc2ccnc3c2CCC3O)c(Cl)cc1NCCc1c[nH]c2ccccc12 (centres unmarked) [Compound 9] | 207 °C | > 10 µM | 4.17 µM | > 10 µM
Cc1cc(Nc2ccnc3c2CCC3O)c(Cl)cc1NCCc1c[nH]c2c(C)cccc12 (centres unmarked) [Compound 10] | 237 °C | 1 µM | 3.55 µM | 2.82 µM
Fc1cc(Nc2ccncc2)cc(F)c1NCCc1c[nH]c2ccccc12 [Compound 11] | 164 °C | > 10 µM | > 10 µM | 4.9 µM
OC1CCc2c(Nc3cc(F)c(NCCc4c[nH]c5ccccc45)c(F)c3)ccnc21 (centres unmarked) [Compound 17] | 147 °C | 1 µM | 8.32 µM | 6.92 µM
OCc1cc(Nc2cc(Cl)c(NCCc3c[nH]c4ccccc34)c(Cl)c2)ccn1 [Compound 24] | 115 °C | > 10 µM | > 10 µM | > 10 µM
Cc1[nH]c2ccccc2c1CCNc1c(Cl)cc(Nc2ccnc(CO)c2)cc1Cl [Compound 25] | 186 °C | 3 µM | > 10 µM | > 10 µM
COc1ccc2c(CCNc3c(Cl)cc(Nc4ccnc5ccccc45)cc3Cl)c[nH]c2c1 [Compound 31] | 175 °C | 1 µM | ~2.57 µM | 1.32 µM
COc1c(Nc2ccnc3c2CCC3O)ccc(NCCc2c[nH]c3c(OC)cccc23)c1F (centres unmarked) [Compound 49] | 123 °C | 1 µM | 0.501 µM | 0.646 µM
CC(=O)Nc1cc(NCCc2c[nH]c3ccccc23)c(F)cc1Nc1ccncc1 [Compound 50] | 241 °C | > 10 µM | > 10 µM | > 10 µM
OCc1cc(NCCc2c[nH]c3ccccc23)c(Br)cc1Nc1ccnc2ccccc12 [Compound 53] | 192 °C | > 10 µM | > 10 µM | 3.98 µM
Cl.N#Cc1c(NCCc2c[nH]c3ccccc23)ccc(Nc2ccncc2)c1N1CCOCC1 [Compound 55] | 245 °C | > 10 µM | > 10 µM | > 10 µM
C=C(C)c1cccc2c(CCNc3ccc(Nc4ccnc5c4CCC5O)c(OC)c3F)c[nH]c12 (centres unmarked) [Compound 64] | – | 0.3 µM | 0.0851 µM | 0.339 µM
